One assay deals with NF-kB activation induced by TNFα. Briefly: TNFα Luciferase assay: inhibition of NF-kB activation induced by TNFα in HEK293/NF-kB luciferase cells. Format: cell-based. Conditions: 25 ng/ml of TNF-α for four hours, quadruplicate, read-out: IC50, concentration at which NF-kB activation was reduced by 50%. The protocol: Determination of Inhibition of NF-kB Activation Induced by TNFα . . . In Vitro Assay
The ability of a compound disclosed herein to inhibit NFkB activation induced by TNFα was determined using the TNFα Luciferase assay. The HEK293/NF-kB luciferase cell line was obtained by cotransfection of pNFkB-luc vector with pHyg (Panomics, CA, USA) followed by hygromycin selection. HEK293/NFkB Luciferase cells were grown in DMEM medium supplemented with 10% fetal bovine serum, 100 U/ml of penicillin, 100 ng/ml of streptomycin/Fungizone, and 100 μg/ml of hygromycin B as the selecting agent. HEK293 NFkB Luciferase cells were grown in T75 flasks (Nunc™ Cell Culture Treated EasYFlasks™) in a cell culture incubator at 37° C. and 5% CO2.
Confluent T75 cell culture flasks (approximately 8-10 million of cells per flask) were washed with 10 ml of sterile PBS (without calcium and magnesium) under a biosafety cabinet. After aspiration of the PBS with a sterile glass pipette, the layer of cells (for each T75 flask) was covered with 1 ml of TrypLE™ Express without phenol red (Gibco) at room temperature. After one minute of incubation, HEK293 were mechanically resuspended in the TrypLE by tapping the side of the flask. The cells were then resuspended with 10 ml of pre-warmed complete culture medium and transferred to a conical tube. Cells were centrifuged for 5 minutes at 4000 rpm (1000 g) at room temperature. The cellular pellet was resuspended with 24 ml of pre-warmed cell culture media and […] of cell suspension (approximately 80,000 cells per well) was plated per well in 96-well cell culture plates (Costar #3599, Corning, N.Y., USA) using a multichannel pipette and reversed pipetting to prevent air bubble formation. After plating, the cells were maintained overnight in the cell culture incubator before being treated. For each 96 well cell culture plate, 8 wells were used as “control wells” (only culture medium added) and to 8 wells only TNFα was added. The NF-kB Luciferase reporter cell line was challenged with 25 ng/ml of TNF-α for four hours in the presence and absence (control conditions) of a dose range of the different compounds to be tested. For each compound, a dose range of concentrations was tested in quadruplicate and used to determine an IC50.
Luciferase activity was monitored using the Luc-Screen® Extended-Glow Luciferase Reporter Gene Assay System by chemoluminescence according to the instruction of the manufacturer (Invitrogen) and a BioTek Synergy HT plate reader (BioTek Instruments, VT, USA).
As for “mixture of 2-((S)-1-oxo-1-((S)-6-(pyridin-3-yl)-5,6-dihydropyridin-1(2H)-yl)butan-2-yl)isoindoline-1,3-dione and 2-((R)-1-oxo-1-((R)-6-(pyridin-3-yl)-5,6-dihydropyridin-1(2H)-yl)butan-2-yl)isoindoline-1,3-dione [Compound 5]”, the IC50 stood at 925000 nM.

As for “mixture of 2-((S)-1-oxo-1-((R)-6-(pyridin-3-yl)-5,6-dihydropyridin-1(2H)-yl)butan-2-yl)isoindoline-1,3-dione and 2-((R)-1-oxo-1-((S)-6-(pyridin-3-yl)-5,6-dihydropyridin-1(2H)-yl)butan-2-yl)isoindoline-1,3-dione [Compound 6]”, the IC50 worked out at 750000 nM.

Regarding `C[C@H](NC(=O)c1cccc([N+](=O)[O-])c1)C(=O)N1CC=CCC1c1cccnc1` (stereo partly shown) [Compound 9], the IC50 amounted to 200000 nM.

Staying with this assay, now noted: Homo sapiens, 4 h, 25 ng/ml of TNF-α for four hours, quadruplicate, read-out: IC50, concentration at which NF-kB activation was reduced by 50%.
Take `COc1ccc(Cl)c(C(=O)N[C@H](Cc2ccccc2)C(=O)N2CC=CCC2c2cccnc2)c1` (stereo partly drawn) [Compound 27, 2-chloro-5-methoxy-N-((2R)-1-oxo-3-phenyl-1-(6-(pyridin-3-yl)-5,6-dihydropyridin-1(2H)-yl)propan-2-yl)benzamide]: the IC50 came to 4000 nM.

Take `CCCC(=O)Nc1cccc(C(=O)N[C@@H](Cc2cccc3ccccc23)C(=O)N2CC=CCC2c2cccnc2)c1` (stereo partly shown) [Compound 64, 3-butyramido-N-((2 S)-3-(naphthalen-1-yl)-1-oxo-1-(6-(pyridin-3-yl)-5,6-dihydropyridin-1 (2H)-yl)propan-2-yl)benzamide]: the IC50 came out at 285 nM.

With `O=C(N[C@@H](Cc1ccccc1)C(=O)N1CC=CCC1c1cccnc1)c1ccco1` (stereo partly drawn) [Compound 52, N-((2S)-1-oxo-3-phenyl-1-(6-(pyridin-3-yl)-5,6-dihydropyridin-1(2H)-yl)propan-2-yl)furan-2-carboxamide], the IC50 turned out to be 134 nM.

For `COc1ccc(C(=O)N[C@@H](C)C(=O)N2CC=CCC2c2cccnc2)cc1OC` (stereo partly drawn) [Compound 12, 3,4-dimethoxy-N-((2S)-1-oxo-1-(6-(pyridin-3-yl)-5,6-dihydropyridin-1(2H)-yl)propan-2-yl)benzamide], the IC50 amounted to 470000 nM.

For the compound `O=C(N[C@@H](Cc1ccccc1)C(=O)N1CC=CCC1c1cccnc1)c1cccc(NC(=O)C2CC2)c1` (stereo partly drawn) [Compound 44, 3-(cyclopropanecarboxamido)-N-((2S)-1-oxo-3-phenyl-1-(6-(pyridin-3-yl)-5,6-dihydropyridin-1(2H)-yl)propan-2-yl)benzamide], the IC50 stood at 80.2 nM.

For `O=C(NC(Cc1ccccc1)C(=O)N1CC=CCC1c1cccnc1)c1cccc([N+](=O)[O-])c1` (stereo not shown) [Compound 15, 3-nitro-N-(1-oxo-3-phenyl-1-(6-(pyridin-3-yl)-5,6-dihydropyridin-1(2H)-yl)propan-2-yl)benzamide], the IC50 stood at 4300 nM.

Regarding `O=C(N[C@@H](Cc1ccccc1)C(=O)N1CC=CCC1c1cccnc1)c1cccc(NC(=O)C2CCCC2)c1` (stereo partly drawn) [Compound 46, 3-(cyclopentanecarboxamido)-N-((2S)-1-oxo-3-phenyl-1-(6-(pyridin-3-yl)-5,6-dihydropyridin-1(2H)-yl)propan-2-yl)benzamide], the IC50 is 58.5 nM.

Take `CC(=O)Nc1cccc(C(=O)NC(Cc2ccccc2)C(=O)N2CC=CCC2c2cccnc2)c1` (stereo not shown) [Compound 39, 3-acetamido-N-(1-oxo-3-phenyl-1-(6-(pyridin-3-yl)-5,6-dihydropyridin-1(2H)-yl)propan-2-yl)benzamide]: the IC50 came out at 210 nM.

For the compound `CCCC(=O)Nc1cccc(C(=O)N[C@@H](Cc2ccc3ccccc3c2)C(=O)N2CC=CCC2c2cccnc2)c1` (stereo partly drawn) [Compound 65, 3-butyramido-N-((2S)-3-(naphthalen-2-yl)-1-oxo-1-(6-(pyridin-3-yl)-5,6-dihydropyridin-1(2H)-yl)propan-2-yl)benzamide], the IC50 came to 704 nM.

On to `CCOc1cc(C(=O)N[C@H](Cc2ccccc2)C(=O)N2CC=CCC2c2cccnc2)ccc1OC` (stereo partly drawn) [Compound 26, 3-ethoxy-4-methoxy-N-((2R)-1-oxo-3-phenyl-1-(6-(pyridin-3-yl)-5,6-dihydropyridin-1(2H)-yl)propan-2-yl)benzamide], for which the IC50 is 2800 nM.

On to `O=C(N[C@@H](Cc1ccccc1)C(=O)N1CC=CCC1c1cccnc1)c1cccnc1` (stereo partly drawn) [Compound 51, N-((2S)-1-oxo-3-phenyl-1-(6-(pyridin-3-yl)-5,6-dihydropyridin-1(2H)-yl)propan-2-yl)nicotinamide], for which the IC50 is 114 nM.

Regarding `O=C1c2ccccc2C(=O)N1CC(=O)N1CC=CCC1c1cccnc1` (stereo not shown) [Compound 8, 2-(2-oxo-2-(6-(pyridin-3-yl)-5,6-dihydropyridin-1(2H)-yl)ethyl)isoindoline-1,3-dione], the IC50 came out at 550000 nM.

For the compound `CCOc1cccc(C(=O)NC(Cc2ccccc2)C(=O)N2CC=CCC2c2cccnc2)c1` (stereo not shown) [Compound 20, 3-ethoxy-N-(1-oxo-3-phenyl-1-(6-(pyridin-3-yl)-5,6-dihydropyridin-1(2H)-yl)propan-2-yl)benzamide], the IC50 stood at 1500 nM.

Turning to `CC(C)CC(=O)Nc1cccc(C(=O)N[C@@H](Cc2ccccc2)C(=O)N2CC=CCC2c2cccnc2)c1` (stereo partly drawn) [Compound 42, 3-(3-methylbutanamido)-N-((2S)-1-oxo-3-phenyl-1-(6-(pyridin-3-yl)-5,6-dihydropyridin-1(2H)-yl)propan-2-yl)benzamide], the IC50 was 86.9 nM.

Turning to `CC(C)(C)C(=O)Nc1cccc(C(=O)N[C@@H](Cc2ccccc2)C(=O)N2CC=CCC2c2cccnc2)c1` (stereo partly drawn) [Compound 43, N-((2S)-1-oxo-3-phenyl-1-(6-(pyridin-3-yl)-5,6-dihydropyridin-1(2H)-yl)propan-2-yl)-3-pivalamidobenzamide], the IC50 is 129 nM.

Turning to `COc1cccc(C(=O)N[C@@H](C)C(=O)N2CC=CCC2c2cccnc2)c1` (stereo partly drawn) [Compound 10, 3-methoxy-N-((2S)-1-oxo-1-(6-(pyridin-3-yl)-5,6-dihydropyridin-1(2H)-yl)propan-2-yl)benzamide], the IC50 turned out to be 125000 nM.

For `CCCC(=O)Nc1cccc(C(=O)NC(Cc2ccccc2)C(=O)N2CC=CCC2c2cnc3ccccc3c2)c1` (stereo not shown) [Compound 40, 3-butyramido-N-(1-oxo-3-phenyl-1-(2-(quinolin-3-yl)-3,6-dihydropyridin-1(2H)-yl)propan-2-yl)benzamide], the IC50 is 40 nM.

Take `CCCCn1cccc1C(=O)N[C@@H](Cc1ccccc1)C(=O)N1CC=CCC1c1cccnc1` (stereo partly drawn) [Compound 61, 1-butyl-N-((2S)-1-oxo-3-phenyl-1-(6-(pyridin-3-yl)-5,6-dihydropyridin-1(2H)-yl)propan-2-yl)-1H-pyrrole-2-carboxamide]: the IC50 amounted to 708 nM.

Regarding `CCOc1cccc(C(=O)N[C@@H](Cc2ccccc2)C(=O)N2CC=CCC2c2cccnc2)c1` (stereo partly drawn) [Compound 33, 3-ethoxy-N-((2S)-1-oxo-3-phenyl-1-(6-(pyridin-3-yl)-5,6-dihydropyridin-1(2H)-yl)propan-2-yl)benzamide], the IC50 is 1800 nM.

As for `C[C@@H](C(=O)N1CC=CC[C@H]1c1cccnc1)N1C(=O)c2ccccc2C1=O` [Compound 2, 2-((S)-1-oxo-1-((S)-6-(pyridin-3-yl)-5,6-dihydropyridin-1(2H)-yl)propan-2-yl)isoindoline-1,3-dione], the IC50 was determined as 425000 nM.

Consider `C[C@H](NC(=O)c1ccc(Cl)cc1)C(=O)N1CC=CCC1c1cccnc1` (stereo partly drawn) [Compound 14, 4-chloro-N-((2S)-1-oxo-1-(6-(pyridin-3-yl)-5,6-dihydropyridin-1(2H)-yl)propan-2-yl)benzamide], for which the IC50 was found to be 170000 nM.

On to `CC(C)[C@@H](C(=O)N1CC=CC[C@H]1c1cccnc1)N1C(=O)c2ccccc2C1=O` (single isomer, unassigned) [Compound 3], for which the IC50 turned out to be 750000 nM.

In the case of `O=C(NC(Cc1ccccc1)C(=O)N1CC=CCC1c1cccnc1)c1cccc(F)c1` (stereo not shown) [Compound 19, 3-fluoro-N-(1-oxo-3-phenyl-1-(6-(pyridin-3-yl)-5,6-dihydropyridin-1(2H)-yl)propan-2-yl)benzamide], the IC50 came to 5400 nM.

On to `CCOc1ccc(C(=O)N[C@@H](C)C(=O)N2CC=CCC2c2cccnc2)cc1OCC` (stereo partly drawn) [Compound 11, 3,4-diethoxy-N-((2S)-1-oxo-1-(6-(pyridin-3-yl)-5,6-dihydropyridin-1(2H)-yl)propan-2-yl)benzamide], for which the IC50 amounted to 250000 nM.

Turning to `O=C(N[C@@H](Cc1ccccc1)C(=O)N1CC=CCC1c1cccnc1)c1cnccn1` (stereo partly drawn) [Compound 50, N-((2S)-1-oxo-3-phenyl-1-(6-(pyridin-3-yl)-5,6-dihydropyridin-1(2H)-yl)propan-2-yl)pyrazine-2-carboxamide], the IC50 came to 131 nM.

For the origin of these results see patent US20220081415A1, “Amino Acid Derivatives for the Treatment of Inflammatory Diseases” (The Roskamp Institute, priority 2019, published 2022).
